This is an account of results in patent publication US4652586A, “Selective beta-2 adrenergic antagonists for the treatment of glaucoma” (priority 1980, dated 1987).

Molecules are shown by their SMILES. Entries after “also recorded” stand apart in the source; their conditions may differ. Counter-ions that a name gives are not always drawn. Like-named read-outs stand apart in the source and are kept apart here.

Assay [1] addresses rabbit heart isoproterenol-stimulated adenylate cyclase. Briefly: rabbit heart isoproterenol-stimulated adenylate cyclase. It is filed as biochemical.
The next assay relates to rabbit eyes. Briefly: intraocular pressure in normal rabbit eyes after topical application. The note with it: for IOP in the contralateral eye: 0.5% topical to ipsilateral eye, presumably systemic absorption; for IOP in ipsilateral eyes compared to predrug readings: two 50 microliter doses, normal rabbit, FIG. 2.
For assay [2], the target named is T1, rabbit ciliary process adenylate cyclase (beta2-adrenergic receptors) (Oryctolagus cuniculus, UniProt G1TAV7).
T1 construct: Homogenates or washed particulate preparations (10 mg/ml) in 6 mM Tris-maleate, pH 7.4, are prepared from the various tissues to be studied; from tissue; host or cells: rabbit ciliary process
T1 sequence (G1TAV7 1-437): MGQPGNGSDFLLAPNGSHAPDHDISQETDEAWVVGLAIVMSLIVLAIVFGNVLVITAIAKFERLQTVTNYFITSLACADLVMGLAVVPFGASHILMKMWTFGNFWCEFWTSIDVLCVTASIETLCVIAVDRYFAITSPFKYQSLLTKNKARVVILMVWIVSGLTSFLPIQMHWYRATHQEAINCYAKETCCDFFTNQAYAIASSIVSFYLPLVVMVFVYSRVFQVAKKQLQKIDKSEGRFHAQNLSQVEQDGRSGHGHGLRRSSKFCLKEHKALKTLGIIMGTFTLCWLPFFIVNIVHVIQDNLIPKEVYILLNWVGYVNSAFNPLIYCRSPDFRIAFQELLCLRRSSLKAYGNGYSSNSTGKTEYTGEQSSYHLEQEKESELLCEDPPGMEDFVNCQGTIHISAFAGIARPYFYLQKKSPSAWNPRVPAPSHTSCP
The assay is described as follows: rabbit ciliary process isoproterenol-stimulated adenylate cyclase. The assay is classed as biochemical. The settings on record: Table III; rabbit ciliary process, isoproterenol-stimulated.

The target in a further assay is heart adenylate cyclase. The settings on record: Table I, data from Minneman et al, cited from earlier work; for Ki: antagonists, read-out: Adenylate Cyclase Ki, Heart (G).
The subject of assay [3] is rabbit ciliary process adenylate cyclase (beta2-adrenergic receptors). Briefly: rabbit ciliary process isoproterenol-stimulated adenylate cyclase. It is filed as biochemical. The note with it: for Ki heart / Ki Ciliary Process = beta2/beta1 potency ratio: Table III, rabbit heart vs rabbit ciliary process, ±20%.
Assay [4] concerns ciliary body adenylate cyclase. The assay is described as follows: ciliary body adenylate cyclase stimulation. The assay is classed as biochemical. From the text:
(§1) The discovery that the ciliary process of the mammalian eye contains β2 -adrenergic receptors is based on the technique of measuring adenylate cyclase, an enzyme which synthesizes cyclic AMP from ATP. It has been established that receptor binding of beta adrenergic agonists is associated with a concomitant activation of adenylate cyclase. (Robison, G. A., et al, Cyclic AMP, Academic Press, New York, 1971, and Wolfe, B. B., et al, Annual Reviews of Pharmacology and Toxicology, 17:575-604 (1977)). […] Beta adrenergic sensitive adenylate cyclase activity was thus identified and characterized in the ocular tissues of several mammalian species such as rabbits, cats, dogs, monkeys and humans. After isolation of the ciliary process, adenylate cyclase activity was measured, and its activation by agonists or inhibition by antagonists was measured. […].
(§2) For ciliary body, maximal stimulation was 15% of the stimulation seen in the ciliary process, and for iris, maximal stimulation was 22% for that seen in the ciliary process. […];

Another assay deals with iris adenylate cyclase. Briefly: iris adenylate cyclase stimulation. The assay is classed as biochemical.
From the text: as §1, §2

Assay [5] concerns the target beta1-adrenergic receptor present in mammalian heart. The settings on record: Table I; data from Minneman et al; read-out: Kd for IHYP Binding, Heart (E); cited from earlier work.
The subject of the next assay is adult female cats. The settings on record: Colasanti and Trotter 1979; cited from earlier work.
[6] abbreviates: Table III, rabbit heart, isoproterenol-stimulated, read-out: Adenylate Cyclase Ki, Heart.

In general, Ki refers to the equilibrium dissociation constant of an inhibitor or competing ligand from its target. On to `CC(C)(C)NCC(O)CON=C1c2ccccc2-c2ccccc21` (stereo not drawn) [IPS 339, (t-butyl-amino 3-ol-2-propyl)oximino-9 fluorene, hydrochloride], for which the Ki was 0.84 µM in assay [1] (Table I, footnote ++ present invention, read-out: Adenylate Cyclase Ki, Heart (G)) and 0.84 µM in [1] (setting [6]). Moreover, the “IOP in the contralateral eye” value in the assay with rabbit eyes was “significant decrease in IOP in the contralateral eye”. Besides, the “IOP in ipsilateral eyes compared to predrug readings” value with rabbit eyes (0.5% topical) is “significant decrease in IOP in ipsilateral eyes at 2 and 3 hours after application”. For the same molecule, the “extent of IOP decrease, IPS 339 compared with timolol” value with rabbit eyes (0.5% topical, at 3 hours) was “significantly more than that caused by timolol”. Besides, the “magnitude of contralateral IOP effect” value with rabbit eyes (0.5% topical, compared with timolol) is recorded as “somewhat less for IPS 339 than for timolol”.

On to `CC(C)NCC(O)COc1ccc(CC(N)=O)cc1` (stereo not drawn) [Atenolol, atenolol], for which the Ki in assay [2] stood at 11 µM.

Consider `CC(C)(C)NC[C@H](O)COc1nsnc1N1CCOCC1` [Timolol, timolol], for which the figures for the Ki (in assay [2]; in [1] (setting [6]); on heart adenylate cyclase) were 0.0045 µM, 0.016 µM and 0.016 µM, respectively. Moreover, the “IOP in the contralateral eye” value in the assay with rabbit eyes was “significant decrease in IOP in the contralateral eye”. In the assay with rabbit eyes (0.5% topical), the “IOP in ipsilateral eyes compared to predrug readings” value is “significant decrease in IOP in ipsilateral eyes at 2 and 3 hours after application; also recorded: significant decrease at 1 hour”.

For the molecule `CNC[C@H](O)c1ccc(O)c(O)c1` [Epinephrine], on heart adenylate cyclase (agonists, NE = no effect as agonist), the “Adenylate Cyclase Ka, Heart (G)” value is 1.5 µM.

With `COc1ccc(OC)c(C(O)C(C)NC(C)(C)C)c1` (stereo not drawn) [Butoxamine], the Ki in [2] is 1.4 µM; in assay [1] (setting [6]), 9.5 µM; at heart adenylate cyclase it was 9.5 µM. Besides, the “β2/β1 potency ratio (Ki heart/Ki ciliary process)” value in [3] (Table II, from Table I, accurate to ±20%) is 1.50. In assay [3], the “Ki heart / Ki Ciliary Process = beta2/beta1 potency ratio” value is 6.8.

For the molecule `CC(=O)Nc1ccc(OCC(O)CNC(C)C)cc1` (stereo not drawn) [Practolol, practolol], the figures for the Ki (in assay [2]; in assay [1] (setting [6]); on heart adenylate cyclase) were 21 µM, 6.8 µM and 6.8 µM, respectively.

`CC(C)NCC(O)c1ccc(O)c(O)c1` (stereo not drawn) [Isoproterenol, isoproterenol]: the “maximal stimulation, ciliary body” value in assay [4] was 15 % of the stimulation seen in the ciliary process. The “maximal stimulation, iris” value in the assay with iris adenylate cyclase was 22 % for that seen in the ciliary process.

As usually defined, the Kd is the constant that tells how readily two partners part at equilibrium. Take `Cc1ccc(C(O)C(C)NC(C)C)cc1` (stereo not drawn) [H35/25, (1(4'-methyl phenyl)-2-isopropylaminopropanol)]: the Ki is 0.79 µM in assay [2], 7 µM in assay [1] (setting [6]) and 7 µM on heart adenylate cyclase. Besides, the “Ki heart / Ki Ciliary Process = beta2/beta1 potency ratio” value in assay [3] worked out at 8.8. Besides, the “β2/β1 potency ratio (Ki heart/Ki ciliary process)” value in assay [3] (rabbit, heart vs ciliary process) came to 3.1. Moreover, the Kd in assay [5] is 1.97 µM. Also, in the assay with adult female cats, the “maximal reduction of intraocular tension” value is given as “about the same maximal reduction as timolol”.
